Data on nine compounds can be found in ChEMBL document CHEMBL1201862, “PubChem BioAssay data set” (2004).

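Protocol summary: plate cells (96-well), add compound at 5 concentrations, incubate 48 h, interpolate endpoints linearly. GI50: concentration for 50% inhibition of growth.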 Activity calls are given as the source filed them. Rule as the data show it: active = GI50 up to about 1.1 µM and inactive = higher. Peptide text beside a SMILES is read from it. * marks the point of attachment. Boc = CC(C)(C)OC(=O)*; OBn = c1ccc(CO*)cc1; Bn = c1ccc(C*)cc1

What all share (test): NCI tumour cell line growth inhibition, 48 h
Assay [1] relates to M14.
The test system of assay [2] is UACC-62.
For assay [3], the system named is ACHN.
Assay [4] deals with UO-31.
For assay [5], the system named is OVCAR-5.
Assay [6] has as its system HCT-116.
Assay [7] deals with SK-OV-3.
In assay [8] the test system is SW-620.
Assay [9] relates to NCI-H226.
For assay [10], the system named is COLO 205.
The subject of assay [11] is SN12C.
In assay [12] the test system is 786-0.
Assay [13] concerns SNB-75.
In assay [14] the test system is MDA-N.
For assay [15], the system named is SR.
The subject of assay [16] is LOX IMVI.
The test system of assay [17] is SK-MEL-2.
Assay [18] relates to HOP-92.

Turning to `CC(=O)NC(C)(C)C1CCC(C)CC1` (stereo not given), the GI50 in assay [1], in assay [2], in assay [3], in assay [4], in assay [5] and in [6] was > 100 µM (inactive) throughout. The GI50 in [7], in assay [8], in assay [9], in assay [10], in assay [11] and in assay [12] was > 100 µM (inactive) in each case. Moreover, the GI50 in assay [13], in assay [14], in assay [15] and in assay [16] was > 100 µM (inactive) in each case.

Turning to `CCCNC(=O)CCC(C)C1CCC2C3C(C[C@H](OC(C)=O)[C@]12C)[C@@]1(C)CCC2(C[C@H]1C[C@H]3OC(C)=O)OOC1(CC[C@]3(C)C4C[C@H](OC(C)=O)[C@]5(C)C(C(C)CCC(=O)NCCC)CCC5C4[C@H](OC(C)=O)C[C@@H]3C1)OO2` (stereo not given in full), the GI50 in assay [1] was 25.6 µM (inactive); in [3] it was 4.37 µM (inactive); in [4], 0.101 µM (active); in assay [5] it was 46.5 µM (inactive); in [6], > 100 µM (inactive); in assay [7] it was 55.5 µM (inactive). For the same compound, the GI50 in assay [8] is > 100 µM (inactive); in assay [9] it was 20.8 µM (inactive); in [10] it was > 100 µM (inactive); in assay [11], > 100 µM (inactive); in [12], > 100 µM (inactive); in [13] it was 57.5 µM (inactive). For the same compound, the GI50 in assay [17], in assay [14], in assay [15] and in assay [16] was > 100 µM (inactive) throughout.

As to `CCCCc1c2c(nc3c1CCC/C3=C\c1ccccc1)/C(=C/c1ccccc1)CCC2`, the GI50 in assay [1], in assay [2], in assay [3], in assay [4], in assay [6] and in [7] was > 100 µM (inactive) in each case. For the same compound, the GI50 in assay [8], in assay [9], in assay [10], in assay [11], in [12] and in assay [15] was > 100 µM (inactive) throughout. Moreover, the GI50 in assay [16] was > 100 µM (inactive).

Take `CCOC(=O)C1(C)C2=CC=C(O2)C(C)(C)C2=CC=C(O2)C(C)(C)C2=CC=C(O2)C(C)(C)C2=CC=C1O2`: the GI50 in assay [3] is > 100 µM (inactive); in assay [5] it was > 100 µM (inactive); in assay [6] it was 46.9 µM (inactive); in assay [7] it was > 100 µM (inactive); in assay [8], > 100 µM (inactive); in assay [9], > 100 µM (inactive). Moreover, the GI50 was 42.3 µM (inactive) in [10]; 36.5 µM (inactive) in [18]; > 100 µM (inactive) in assay [11]; > 100 µM (inactive) in assay [12]; > 100 µM (inactive) in assay [17]; 68.1 µM (inactive) in [15]. Also, in assay [16], the GI50 is > 100 µM (inactive).

Regarding `CC(=O)NC(CC(C)C)C(=O)NC(Cc1ccccc1)C(=S)N1CCCC1` (stereo not given), the GI50 in [1], in assay [2], in [3], in assay [4], in [5] and in [7] was > 100 µM (inactive) throughout. Further, the GI50 in [8] was > 100 µM (inactive); in assay [9], 74.8 µM (inactive); in assay [10] it was > 100 µM (inactive); in assay [18], > 100 µM (inactive); in assay [11] it was > 100 µM (inactive); in [12], > 100 µM (inactive). Besides, the GI50 in [13], in assay [17] and in assay [16] was > 100 µM (inactive) throughout.

`Cc1ccc(S(=O)(=O)NC(=O)Nc2cc(Cl)c(S(N)(=O)=O)cc2S(N)(=O)=O)cc1`: the GI50 in assay [1], in assay [2], in [4], in [5], in assay [6] and in [7] was > 100 µM (inactive) each time. Also, the GI50 in assay [8], in [9], in [10], in assay [18], in assay [11] and in [12] was > 100 µM (inactive) in each case. In addition, the GI50 in assay [13], in assay [17], in [14] and in [16] was > 100 µM (inactive) throughout.

Consider `CC(C)(C)c1ccc(OC2CCO2)cc1` (stereo not given), for which the GI50 in [1] was 42.6 µM (inactive); in assay [2], 24 µM (inactive); in assay [3] it was 34.5 µM (inactive); in assay [4] it was 58.2 µM (inactive); in assay [5] it was 32.7 µM (inactive); in assay [6], 21 µM (inactive). The GI50 in [7] is > 100 µM (inactive); in assay [8], 17.1 µM (inactive); in [9] it was 27.9 µM (inactive); in assay [10], 29.4 µM (inactive); in assay [18], 35.4 µM (inactive); in [11], 18.7 µM (inactive). In addition, the results for the GI50 in assay [12] and in [13] were 28.7 µM (inactive) and 53.8 µM (inactive), respectively.

For `CC(C)CC(NC(=O)C(CCC(=O)OCc1ccccc1)NC(=O)OC(C)(C)C)C(=O)NC(COCc1ccccc1)C(=O)NC(Cc1ccccc1)C(=O)O` (stereo not given) (Boc-E(OBn)LS(Bn)F-OH; configuration not given here), the GI50 in [1], in assay [2], in assay [3], in assay [4], in [5] and in assay [6] was > 100 µM (inactive) each time. The GI50 in assay [8], in [9], in assay [10], in assay [18], in assay [11] and in [12] was > 100 µM (inactive) each time. The GI50 in [13] was 96.8 µM (inactive); in assay [17], > 100 µM (inactive); in assay [14] it was > 100 µM (inactive); in [15] it was > 100 µM (inactive).

On to `C[C@H]1C/C=C/[C@H]2[C@@H]3O[C@]3(C)[C@@H](C)[C@H]3[C@H](Cc4ccccc4)NC(=O)[C@]32OC(=O)O/C=C/[C@@](C)(O)C1=O` [CYTOCHALASIN E], for which the GI50 in assay [1] is 0.0436 µM (active); in assay [2], 0.1 µM (active); in assay [3], < 0.01 µM (active); in assay [4] it was 0.0199 µM (active); in assay [5], 11.3 µM (inactive); in assay [7] it was 0.0292 µM (active). In addition, the GI50 is 21.8 µM (inactive) in assay [8]; 0.0333 µM (active) in assay [9]; 0.0239 µM (active) in assay [18]; 3.16 µM (inactive) in assay [11]; 0.114 µM (active) in assay [12]; 0.0102 µM (active) in [13]. Besides, the GI50 is 0.393 µM (active) in assay [17], 0.0231 µM (active) in [14], 0.065 µM (active) in assay [15] and 0.0128 µM (active) in [16].
